The values that follow come from ChEMBL document CHEMBL5724914, “Linking interpersonal differences in gut microbiota composition and drug biotransformation activity” (2024).

The conditions of data set [1]: human gut metagenome, 24 h, 2 µM.
The conditions of data set [2]: human gut metagenome, 24 h, 2 µM. The source holds these as a separate data set.
Data set [3] can be described thus: The drug is tested on Z-019 corresponding to rat gut metagenome with ENA study accession number: PRJEB37062 and ENA sample accession number: ERS12561818 for biotransformation under anaerobic condition. The drug concentrations were measured over 9 timepoints collected between 0 and 24 hours of incubation by liquid-chromatography-coupled mass spectrometry (LC–MS). As to conditions: 2 µM.

For data set [4] the following is noted: human gut metagenome, 24 h, 2 µM. The source holds these as a separate data set.
The conditions of data set [5]: human gut metagenome, 24 h, 2 µM. The source holds these as a separate data set.
Data set [6] in a line: The drug is tested on Z-020 corresponding to rabbit gut metagenome with ENA study accession number: PRJEB37062 and ENA sample accession number: ERS12561819 for biotransformation under anaerobic condition. The drug concentrations were measured over 9 timepoints collected between 0 and 24 hours of incubation by liquid-chromatography-coupled mass spectrometry (LC–MS). The following applies: 2 µM.

Data set [7] in a line: The drug is tested on WLS-052 corresponding to human gut metagenome with ENA study accession number: PRJEB37062 and ENA sample accession number: ERS12561747 for biotransformation under anaerobic condition. The drug concentrations were measured over 9 timepoints collected between 0 and 24 hours of incubation by liquid-chromatography-coupled mass spectrometry (LC–MS). As to conditions: 2 µM.

For data set [8] the following is noted: human gut metagenome, 24 h, 2 µM. The source holds these as a separate data set.
For data set [9] the following is noted: human gut metagenome, 24 h, 2 µM. This is another data set of the same source.
The nature of data set [10]: The drug is tested on Z-003 corresponding to pig gut metagenome with ENA study accession number: PRJEB37062 and ENA sample accession number: ERS12561803 for biotransformation under anaerobic condition. The drug concentrations were measured over 9 timepoints collected between 0 and 24 hours of incubation by liquid-chromatography-coupled mass spectrometry (LC–MS). As to conditions: 2 µM.

Data set [11] is described as follows: The drug is tested on Z-014 corresponding to rat gut metagenome with ENA study accession number: PRJEB37062 and ENA sample accession number: ERS12561814 for biotransformation under anaerobic condition. The drug concentrations were measured over 9 timepoints collected between 0 and 24 hours of incubation by liquid-chromatography-coupled mass spectrometry (LC–MS). As to conditions: 2 µM.

A short description of data set [12]: The drug is tested on Z-002 corresponding to rabbit gut metagenome with ENA study accession number: PRJEB37062 and ENA sample accession number: ERS12561802 for biotransformation under anaerobic condition. The drug concentrations were measured over 9 timepoints collected between 0 and 24 hours of incubation by liquid-chromatography-coupled mass spectrometry (LC–MS). The following applies: 2 µM.

Data set [13] can be described thus: The drug is tested on Z-010 corresponding to metagenome with ENA study accession number: PRJEB37062 and ENA sample accession number: ERS12561810 for biotransformation under anaerobic condition. The drug concentrations were measured over 9 timepoints collected between 0 and 24 hours of incubation by liquid-chromatography-coupled mass spectrometry (LC–MS). The following applies: 2 µM.

Data set [14] in a line: The drug is tested on Z-023 corresponding to metagenome with ENA study accession number: PRJEB37062 and ENA sample accession number: ERS12561822 for biotransformation under anaerobic condition. The drug concentrations were measured over 9 timepoints collected between 0 and 24 hours of incubation by liquid-chromatography-coupled mass spectrometry (LC–MS). As to conditions: 2 µM.

The nature of data set [15]: The drug is tested on Z-027 corresponding to metagenome with ENA study accession number: PRJEB37062 and ENA sample accession number: ERS12561826 for biotransformation under anaerobic condition. The drug concentrations were measured over 9 timepoints collected between 0 and 24 hours of incubation by liquid-chromatography-coupled mass spectrometry (LC–MS). The following applies: 2 µM.

For data set [16] the following is noted: human gut metagenome, 24 h, 2 µM. The source holds these as a separate data set.
Data set [17] can be described thus: The drug is tested on WLS-069 corresponding to human gut metagenome with ENA study accession number: PRJEB37062 and ENA sample accession number: ERS12561748 for biotransformation under anaerobic condition. The drug concentrations were measured over 9 timepoints collected between 0 and 24 hours of incubation by liquid-chromatography-coupled mass spectrometry (LC–MS). As to conditions: 2 µM.

Data set [18] is described as follows: The drug is tested on Z-008 corresponding to metagenome with ENA study accession number: PRJEB37062 and ENA sample accession number: ERS12561808 for biotransformation under anaerobic condition. The drug concentrations were measured over 9 timepoints collected between 0 and 24 hours of incubation by liquid-chromatography-coupled mass spectrometry (LC–MS). The following applies: 2 µM.

The nature of data set [19]: The drug is tested on WLS-007 corresponding to human gut metagenome with ENA study accession number: PRJEB37062 and ENA sample accession number: ERS12561742 for biotransformation under anaerobic condition. The drug concentrations were measured over 9 timepoints collected between 0 and 24 hours of incubation by liquid-chromatography-coupled mass spectrometry (LC–MS). As to conditions: 2 µM.

A short description of data set [20]: The drug is tested on WLS-086 corresponding to human gut metagenome with ENA study accession number: PRJEB37062 and ENA sample accession number: ERS12561752 for biotransformation under anaerobic condition. The drug concentrations were measured over 9 timepoints collected between 0 and 24 hours of incubation by liquid-chromatography-coupled mass spectrometry (LC–MS). As to conditions: 2 µM.
Further: call rule not given here.

As for `COc1cc(NC(C)CCCN)c2ncccc2c1.O=P(O)(O)O.O=P(O)(O)O` (stereo not drawn) [PRIMAQUINE PHOSPHATE], the “Bacterial Biotransformation” value in data set [1] was “Compound NOT metabolized”; in data set [2] it was “Compound NOT metabolized”; in data set [3] it was “Compound NOT metabolized”; in data set [4], “Compound metabolized”; in data set [5] it was “Compound metabolized”; in [6] it was “Compound NOT metabolized”. For the same compound, the “Bacterial Biotransformation” value in data set [7], in data set [8], in data set [9], in [10], in data set [11] and in data set [12] was “Compound NOT metabolized” in each case. The “Bacterial Biotransformation” value in [13] is “Compound NOT metabolized”; in data set [14], “Compound NOT metabolized”; in data set [15] it was “Compound NOT metabolized”; in data set [16], “Compound metabolized”; in data set [17] it was “Compound metabolized”; in data set [18], “Compound NOT metabolized”.

`COc1cc(C(=O)NCc2ccc(OCCN(C)C)cc2)cc(OC)c1OC` [TRIMETHOBENZAMIDE]: the “Bacterial Biotransformation” value in data set [1], in data set [2], in data set [3], in [5], in [6] and in [7] was “Compound NOT metabolized” each time. The “Bacterial Biotransformation” value in data set [8], in data set [9], in [10], in data set [11], in data set [12] and in [13] was “Compound NOT metabolized” throughout. For the same compound, the “Bacterial Biotransformation” value in [14], in data set [19], in data set [15], in data set [16], in data set [17] and in data set [18] was “Compound NOT metabolized” each time. The “Bacterial Biotransformation” value in [20] is listed as “Compound NOT metabolized”.

`Cc1cc2c(s1)Nc1ccccc1N=C2N1CCN(C)CC1` [OLANZAPINE]: the “Bacterial Biotransformation” value in data set [1], in data set [2], in [3], in data set [4], in [5] and in data set [6] was “Compound NOT metabolized” each time. The “Bacterial Biotransformation” value in data set [7] is on record as “Compound NOT metabolized”; in data set [8] it was “Compound NOT metabolized”; in data set [9] it was “Compound metabolized”; in [10], “Compound metabolized”; in data set [11], “Compound NOT metabolized”; in data set [12], “Compound metabolized”. Moreover, the “Bacterial Biotransformation” value in [13], in data set [14], in [19], in data set [15], in data set [17] and in [18] was “Compound NOT metabolized” throughout.

In the case of `CC(=O)O[C@H]1C(=O)[C@@]2(C)[C@H]([C@H](OC(=O)c3ccccc3)[C@]3(O)C[C@H](OC(=O)[C@H](O)[C@@H](NC(=O)c4ccccc4)c4ccccc4)C(C)=C1C3(C)C)[C@]1(OC(C)=O)CO[C@@H]1C[C@@H]2O` [PACLITAXEL], the “Bacterial Biotransformation” value in data set [1] is given as “Compound NOT metabolized”; in data set [2], “Compound NOT metabolized”; in [3], “Compound NOT metabolized”; in data set [4], “Compound NOT metabolized”; in data set [5], “Compound NOT metabolized”; in [6], “Compound metabolized”. Besides, the “Bacterial Biotransformation” value in [7] is “Compound metabolized”; in data set [8], “Compound NOT metabolized”; in data set [9] it was “Compound metabolized”; in data set [10], “Compound metabolized”; in data set [11] it was “Compound metabolized”; in [12], “Compound metabolized”. Besides, the “Bacterial Biotransformation” value is reported as “Compound metabolized” in data set [13]; “Compound metabolized” in [14]; “Compound NOT metabolized” in data set [15]; “Compound NOT metabolized” in [16]; “Compound metabolized” in data set [17]; “Compound NOT metabolized” in [18]. Further, in data set [20], the “Bacterial Biotransformation” value is on record as “Compound NOT metabolized”.

Turning to `COc1cc2nc(N3CCN(C(=O)C4CCCO4)CC3)nc(N)c2cc1OC` (stereo not drawn) [TERAZOSIN], the “Bacterial Biotransformation” value in [1] is recorded as “Compound NOT metabolized”; in data set [2] it was “Compound NOT metabolized”; in [3] it was “Compound NOT metabolized”; in data set [4], “Compound metabolized”; in data set [5], “Compound NOT metabolized”; in [6], “Compound NOT metabolized”. Further, the “Bacterial Biotransformation” value in [7], in data set [8], in data set [9], in data set [10], in data set [11] and in [12] was “Compound NOT metabolized” each time. In addition, the “Bacterial Biotransformation” value in [13] is given as “Compound metabolized”; in data set [14] it was “Compound NOT metabolized”; in data set [19], “Compound metabolized”; in data set [15], “Compound NOT metabolized”; in data set [16], “Compound metabolized”; in [18] it was “Compound NOT metabolized”. Further, the “Bacterial Biotransformation” value in [20] is on record as “Compound metabolized”.
